Test results: patent US8969554B2, “6-acyl-1,2,4-triazine-3,5-dione derivative and herbicides” (Kumiai Chemical Industry Co., Ltd., priority 2010, dated 2015)

How the values were obtained:
Format in all cases: in vivo
Echinochloa crus-galli [1] = experiment: Herbicidal activity by field soil treatment (Test example 2); design: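 index 0 to 10 in 10% steps of herbicidal effect with 10 meaning complete death and 0 below 10%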; conditions: 1000 g effective component per hectare, day 21 after the treatment
Outline: (§1)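 Field soil filled 80 cm^2 pots; seeds were sown, covered, and the soil surface treated with a small sprayer. Dose: 1000 g/ha of active component from a water-diluted wettable powder, applied in 1000 L/ha. Greenhouse cultivation followed, with evaluation at day 21.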

Indian millet [2] = experiment: as above; design: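 index 0 to 10 in 10% steps of herbicidal effect with 10 meaning complete death and 0 below 10%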; conditions: 1000 g effective component per hectare, day 21 after the treatment
Outline: as §1

A. retroflexus [3] = experiment: as above; design: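 index 0 to 10 in 10% steps of herbicidal effect with 10 meaning complete death and 0 below 10%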; conditions: 1000 g effective component per hectare, day 21 after the treatment
Outline: as §1

Indian millet [4] = experiment: Herbicidal activity by field foliage treatment (Test example 3); design: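 index 0 to 10 in 10% steps of herbicidal effect with 10 meaning complete death and 0 below 10%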; conditions: 1000 g effective component per hectare, day 14 after the treatment
Outline: (§2)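 Seeds sown in field soil and kept 2 weeks in a greenhouse; foliage of the whole plant then sprayed with diluted wettable powder (1000 L/ha, 1000 g a.i./ha); plants returned to the greenhouse and scored for herbicidal effect on day 14.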

A. retroflexus [5] = experiment: as above; design: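 index 0 to 10 in 10% steps of herbicidal effect with 10 meaning complete death and 0 below 10%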; conditions: 1000 g effective component per hectare, day 14 after the treatment
Outline: as §2

Echinochloa oryzicola = experiment: Herbicidal activity by paddy field soil treatment (Test Example 1); design: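 index 0 to 10 in 10% steps of herbicidal effect with 10 meaning complete death and 0 below 10%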; conditions: 1000 g of effective component per hectare, evaluated on day 21 after the treatment, criteria of Table 72
Outline: (§3)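 Paddy soil was watered and puddled, seeded, then flooded to 3 cm. One day later the formulation, diluted with water, went onto the water surface at 1000 g/ha of active ingredient. After 21 days in the greenhouse, effects were scored.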

Monochoria vaginalis = experiment: as above; design: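 index 0 to 10 in 10% steps of herbicidal effect with 10 meaning complete death and 0 below 10%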; conditions: 1000 g of effective component per hectare, evaluated on day 21 after the treatment, criteria of Table 72
Outline: as §3

Scirpus juncoides Rocxb. = experiment: as above; design: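 index 0 to 10 in 10% steps of herbicidal effect with 10 meaning complete death and 0 below 10%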; conditions: applied on water surface, 1000 g of effective component per hectare, day 21 after the treatment
Outline: as §3

Setaria viridis = experiment: Herbicidal activity by field foliage treatment (Test example 3); conditions: 1000 g effective component per hectare, day 14 after the treatment;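 also: index 0 to 10 in 10% steps of herbicidal effect with 10 meaning complete death and 0 below 10%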
Outline: (§4)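 Herbicidal effect was rated on day 14 following a foliar spray of 1000 g active ingredient per hectare, applied as water-diluted wettable powder at 1000 L/ha. Plants had been raised for 2 weeks in field soil under greenhouse conditions before spraying.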

foxtail = experiment: Herbicidal activity by field soil treatment (Test example 2); conditions: 1000 g effective component per hectare, day 21 after the treatment;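 also: index 0 to 10 in 10% steps of herbicidal effect with 10 meaning complete death and 0 below 10%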
Procedure: [table] Test for Determining Herbicidal Activity by Field Soil Treatment A 80 cm^2 wide plastic pot was filled with a field soil and seeds of each of Echinochloa crus-galli, foxtail, Indian millet, and A. retroflexus were sowed and then covered with soil. The wettable powder produced with reference to the Formulation example 1 was diluted water, and applied on the soil surface by using a small sprayer in an amount of 1000 liters per hectare so that the effective component is 1000 g per hectare. After that, the plants were cultivated in a greenhouse, and on day 21 after the treatment, evaluation was made by the criteria described in Table 72 for determining the herbicidal effects.

Echinochloa crus-galli [6] = experiment: Herbicidal activity by field foliage treatment (Test example 3); design: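 index 0 to 10 in 10% steps of herbicidal effect with 10 meaning complete death and 0 below 10%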; conditions: 1000 g effective component per hectare, day 14 after the treatment
Outline: as §4

| SMILES | herbicidal effect index, Echinochloa crus-galli (Echinochloa crus-galli [1]) | herbicidal effect index, Abutilon theophrasti (Indian millet [2]) | herbicidal effect index, Amaranthus retroflexus (A. retroflexus [3]) | herbicidal effect index, Abutilon theophrasti (Indian millet [4]) | herbicidal effect index, Amaranthus retroflexus (A. retroflexus [5]) | Herbicidal effects index number, Echinochloa oryzicola (Echinochloa oryzicola) | Herbicidal effects index number, Monochoria vaginalis (Monochoria vaginalis) | herbicidal effect index, S. juncoides Rocxb. (Scirpus juncoides Rocxb.) | herbicidal effect index, Setaria viridis (Setaria viridis) | herbicidal effect index, Setaria viridis (foxtail) | herbicidal effect index, Echinochloa crus-galli (Echinochloa crus-galli [6]) |
| --- | --- | --- | --- | --- | --- | --- | --- | --- | --- | --- | --- |
| Cc1cc(F)ccc1-n1c(=O)c(C(=O)C2=C(O)CCCC2=O)nn(C)c1=O [I-117] | 10 | 10 | 10 | 9 | 8 | 10 | 10 | 10 | 9 | 7 | 9 |
| Cn1nc(C(=O)C2=C(O)CCCC2=O)c(=O)n(-c2c(Cl)cccc2Cl)c1=O [I-86] | 10 | 9 | 10 | 10 | 10 | 10 | 10 | 10 | 9 | 9 | 9 |
| Cc1cccc(-n2c(=O)c(C(=O)C3=C(O)CCCC3=O)nn(C)c2=O)c1 [I-58] | 10 | 10 | 10 | 10 | 10 | 10 | 10 | 10 | 10 | 8 | 10 |
| COc1cc(-n2c(=O)c(C(=O)C3=C(O)CCCC3=O)nn(C)c2=O)cc(OC)c1OC [I-169] | 10 | 9 | 10 | 9 | 8 | 10 | 10 | 10 | 9 | 10 | 9 |
| Cc1c(F)cccc1-n1c(=O)c(C(=O)C2=C(O)CCCC2=O)nn(C)c1=O [I-116] | 10 | 10 | 10 | 9 | 8 | 10 | 10 | 10 | 9 | 9 | 9 |
| COCCCn1c(=O)c(C(=O)C2=C(O)CCCC2=O)nn(C)c1=O [I-41] | 9 | 8 | 10 | 10 | 10 | 8 | 8 | 10 | 10 | 7 | 10 |
| Cn1nc(C(=O)C2=C(O)CCCC2=O)c(=O)n(-c2cccc(F)c2F)c1=O [I-77] | 9 | 10 | 10 | 10 | 10 | 10 | 10 | 10 | 10 | 9 | 10 |
| Cn1nc(C(=O)C2=C(O)CCCC2=O)c(=O)n(-c2cc(F)cc(F)c2)c1=O [I-76] | 10 | 10 | 10 | 10 | 10 | 10 | 10 | 10 | 9 | 9 | 10 |
| Cn1nc(C(=O)C2=C(O)CCCC2=O)c(=O)n(-c2cc(Cl)cc(Cl)c2)c1=O [I-82] | 9 | 9 | 10 | 10 | 10 | 8 | 10 | 10 | 10 | 9 | 10 |
| C#CCn1c(=O)c(C(=O)C2=C(O)CCCC2=O)nn(C)c1=O [I-14] | 10 | 10 | 10 | 10 | 10 | 10 | 10 | 10 | 10 | 10 | 9 |
| Cc1c(Cl)cccc1-n1c(=O)c(C(=O)C2=C(O)CCCC2=O)nn(C)c1=O [I-136] | – | 9 | 9 | 9 | 10 | 9 | 10 | 10 | 9 | 8 | 9 |
| Cc1ccc(-n2c(=O)c(C(=O)C3=C(O)C(C)(C)C(=O)C(C)(C)C3=O)nn(C)c2=O)c(C)c1 [VI-65] | – | 10 | 10 | 10 | 10 | 10 | 10 | 10 | 7 | 7 | 9 |
| Cc1cncc(-n2c(=O)c(C(=O)C3=C(O)CCCC3=O)nn(C)c2=O)c1 [I-278] | 9 | – | 10 | 9 | 10 | 8 | 9 | 10 | 10 | 9 | 10 |
| Cn1nc(C(=O)C2=C(O)CCCC2=O)c(=O)n(C2CCCCC2)c1=O [I-19] | 8 | – | 8 | 10 | 10 | 10 | 10 | 10 | 10 | 8 | 10 |
| COc1cc(-n2c(=O)c(C(=O)C3=C(O)CCCC3=O)nn(C)c2=O)ccc1C [I-155] | – | 10 | 10 | 10 | 10 | 10 | 10 | 10 | 7 | 7 | 9 |
